Reference: US12291502B2, “Topoisomerase II-alpha inhibitors and methods of treating cancer using the same” (The Regents of the University of Colorado, priority 2019, dated 2025)
Entries after “also recorded” stand apart in the source; their conditions may differ.

Legend:
[1] = system: H2AX S139 phosphorylation (γ-H2AX) in colon cancer cell lines HT29 and SW620; test: γ-H2AX DNA damage assay (immunofluorescence); assay type: cell-based; settings: 0-40 μM for Neo, 7, BAP1, 5-100 μM for etoposide
Description: γ-H2AXDNA damage assay. Colon cancer cell lines HT29 and SW620 were plated to black clear bottom 96 well plates at 20,000 cells/well in 100 μL of phenol red free medium. […] Cells were fixed with 4% paraformaldehyde at room temp for 20 min, washed 3 times with 400 μL/well of PBS, permeabilized and blocked with 100 μL of 3% BSA and 0.1% IGEPAL in PBS for 20 min. Cells were then incubated in γ-H2AX primary antibody (Cell Signaling, 1:400 dilution) at 4° C. overnight, washed 4 times with PBS, and incubated with FITC conjugated anti-rabbit secondary antibody (Cell Signaling, 1:200 dilution) at room temp for 1 hour, and washed 4 times with PBS. Cells were stained with 10 μM of Hoechst 33342 at room temp for 10 min, washed 4 times with PBS before imaged with a 20× objective using PerkinElmer Operetta imager.

[2] = system: SW620 cells; test: Clonogenic assay (24 h pretreatment of cells); assay type: cell-based; settings: SW620 cells pretreated 24 hours, colonies over 7 days vs DMSO
Description: Clonogenic assay. SW620 cells were plated to allow for 70% confluency within 24 hours. Analogs 3, 7, and vehicle (DMSO) were then added to cells for 24 hours as pretreatment. A total of 1000 viable cells per well were plated into a six-well plate and medium was changed 2× per week. […] The fixed colonies were stained with 0.5% (w/v) crystal violet in 25% (v/v) methanol solution for 2 hours at room temperature. The stain was rinsed off with water and the plate was air dried at room temperature. Digital pictures were taken, and the images were saved in greyscale (8-bit). Images were adjusted for threshold with imaged software (Bethesda, MD, USA), the area of analysis was circled, and particles were analyzed by size (100-2000) and circularity (0.5-1).
After characterizing 3 and 7 as TOP2A ATP-competitive inhibitors, these compounds were next tested for their ability to inhibit TOP2A-dependent TCF-transcription using the well characterized TOPflash (TOP) luminescent reporter, which was used to generate a stably transduced SW620-TOP reporter cells as described previously (Zhou, et al., Oncogene 2016, 35:4990-9). These cells were used to generate single 3D tumor organoids (700 μm in diameter) uniformly arrayed in 96-well plates, which mimic aspects of tumor function observed in vivo. […]

[3] = system: tumor xenograft; test: Tumor xenograft study, tumor growth; assay type: in vivo, athymic nude mouse; settings: i.p. 50 mg/kg, 5× per week over 28 days
Description: Finally, a major goal of this drug design approach was to improve the in vivo physicochemical properties of TOP2A inhibitors compared to the natural product neo. Therefore, an in vivo study was conducted using the athymic nude mouse tumor xenograft model to determine if one of these drug leads could accumulate in tumors when administered via intraperitoneal injection (i.p.). […] Thus, compound 42 was administered i.p. at 50 mg/kg, 5× per week over 28 days.

[4] = LCMS quantitation of compound in harvested tumors; assay type: in vivo, athymic nude mouse; settings: i.p. 50 mg/kg, 5× per week over 28 days
Description: Mass spectrometry analysis and Sample preparation. Tumor tissue was isolated, flash frozen in liquid nitrogen, and stored at −80° C. until analysis. Prior to LC-MS analysis, samples were milled in liquid nitrogen and weighed. Tissue was then placed in tubes containing ˜50-75 μL of glass beads (NextAdvance SKU GB10), resuspended to 15 mg/ml in methanol:acetonitrile:water (5:3:2, v:v:v) and processed using a Bullet Blender® (Next Advance, Troy, NY, USA) for 5 minutes at level 4 at 4° C. Suspensions were then vortexed continuously for 30 min at 4° C. Insoluble material was removed by centrifugation at 10,000 g for 10 min at 4° C. and supernatants were isolated for metabolomics analysis by UHPLC-MS. Standard curves were prepared by serial dilution of the purified AA-29-141 compound into a pool of vehicle-treated tumor extract.
UHPLC-MS analysis for quantification of 42 in tumor tissue. Analyses were performed as previously published. Briefly, the analytical platform employs a Vanquish UHPLC system (Thermo Fisher Scientific, San Jose, CA, USA) coupled online to a Q Exactive mass spectrometer (Thermo Fisher Scientific, San Jose, CA, USA). […]

[5] = Water solubility (stated); assay type: physicochemical

Structure (SMILES)	DNA double stranded breaks (γ-H2AX) [1]	clonogenic colony formation, in words [2]	DNA double stranded breaks (γ-H2AX) ([1]; listed as Neo)	tumor growth [3]	quantity of compound in tumors (LCMS/HRMS) [4]	water solubility, in words [5]
CC(=O)Nc1ccc2c(-c3cc(F)ccc3O)ccnc2c1O [Analog 7]	do not damage DNA; also recorded: do not cause DNA DSBs	sufficient to inhibit colony formation; also recorded: significantly inhibit clonogenic colony formation	–	–	–	–
Cn1ccc2c(c1=O)C(=O)c1nccc3c1C2NC1=CCC=CC13 (stereo not shown) [neo, neoamphimedine, reference compound]	do not damage DNA	–	do not cause DNA DSBs	–	–	–
O=C(CCN1CCOCC1)Nc1ccc2c(-c3cc(F)ccc3O)ccnc2c1O [Analog 42]	–	–	–	no loss of any tumor growth was observed	significant HRMS quantity	water soluble; also recorded: significantly improved water solubility
